Here are results for 16 molecules from ChEMBL document CHEMBL4184243, “Optimization of antimalarial, and anticancer activities of (E)-methyl 2-(7-chloroquinolin-4-ylthio)-3-(4-hydroxyphenyl) acrylate” (Bioorg Med Chem, 2018).

A short description of data set [1]: Inhibition of beta-hematin formation assessed as reduction in acetate buffer-initiated hemozoin formation measured after 48 hrs. Also on record: concentration or dose not given beside the values. To be noted: concentration not given here.
The subject of data set [2] is Plasmodium berghei. The data set can be described thus: Antimalarial activity against chloroquine-susceptible Plasmodium berghei ANKA infected in Balb-C mouse assessed as parasitemia at 10 mg/kg, ip administered once daily for 4 days measured post last dose by Giemsa staining based method (reference value: 65.8 +/- 4.38%). The data set is classed as functional.
Data set [3] deals with Plasmodium berghei. Kind of data set: Antimalarial activity against chloroquine-susceptible Plasmodium berghei ANKA infected in Balb-C mouse assessed as mean survival days at 10 mg/kg, ip administered once daily for 4 days (reference value: 8.4 +/- 0.15 day). The format is functional.
The test system of data set [4] is Lymphocyte. Kind of data set: Cytotoxicity against human lymphocytes after 24 to 48 hrs by MTT assay. The format is cell-based.
The subject of data set [5] is Jurkat E6.1. Kind of data set: Cytotoxicity against human Jurkat E6-1 cells after 24 hrs by MTT assay. To be noted: Jurkat E6.1, 24 h. The data set is classed as functional, cell-based.
For data set [6], the system named is HL-60. Kind of data set: Cytotoxicity against human HL60 cells after 24 hrs by MTT assay. The format is functional, cell-based. To be noted: HL-60, 24 h.
Data set [7] is described as follows: Selectivity index, ratio of IC50 for human lymphocytes to IC50 for human Jurkat E6-1 cells. The format is toxicity. To be noted: human lymphocytes versus Jurkat E6-1 cells, read-out: Ratio IC50.
Data set [8] is described as follows: Selectivity index, ratio of IC50 for human lymphocytes to IC50 for human HL60 cells. To be noted: human lymphocytes versus HL60 cells, read-out: Ratio IC50. The format is toxicity.
Data set [9] relates to Jurkat E6.1. Kind of data set: Induction of apoptosis in human Jurkat E6-1 cells assessed as necrotic cells at 5 uM after 24 hrs by Annexin-V-FITC/propidium iodide staining based flow cytometric analysis (reference value: 1.26 +/- 0.24 %). The data set is classed as functional.
The subject of data set [10] is Jurkat E6.1. The data set can be described thus: Induction of apoptosis in human Jurkat E6-1 cells assessed as late apoptotic cells at 5 uM after 24 hrs by Annexin-V-FITC/propidium iodide staining based flow cytometric analysis (reference value: 0.73 +/- 0.14 %). The data set is classed as functional.
In data set [11] the test system is Jurkat E6.1. The data set can be described thus: Induction of apoptosis in human Jurkat E6-1 cells assessed as early apoptotic cells at 5 uM after 24 hrs by Annexin-V-FITC/propidium iodide staining based flow cytometric analysis (reference value: 0.5 +/- 0.07 %). The format is functional.
In data set [12] the test system is HL-60. Kind of data set: Induction of apoptosis in human HL60 cells assessed as necrotic cells at 5 uM after 24 hrs by Annexin-V-FITC/propidium iodide staining based flow cytometric analysis (reference value: 1.96 +/- 0.33 %). The data set is classed as functional.
Data set [13] has as its system HL-60. Kind of data set: Induction of apoptosis in human HL60 cells assessed as late apoptotic cells at 5 uM after 24 hrs by Annexin-V-FITC/propidium iodide staining based flow cytometric analysis (reference value: 0.85 +/- 0.13 %). The format is functional.
Data set [14] relates to HL-60. The data set can be described thus: Induction of apoptosis in human HL60 cells assessed as early apoptotic cells at 5 uM after 24 hrs by Annexin-V-FITC/propidium iodide staining based flow cytometric analysis (reference value: 0.36 +/- 0.02 %). The data set is classed as functional.
The test system of data set [15] is Jurkat E6.1. Kind of data set: Induction of apoptosis in human Jurkat E6-1 cells assessed as necrotic cells at 50 uM after 24 hrs by Annexin-V-FITC/propidium iodide staining based flow cytometric analysis (reference value: 1.26 +/- 0.24 %). The data set is classed as functional.
The subject of data set [16] is Jurkat E6.1. The data set can be described thus: Induction of apoptosis in human Jurkat E6-1 cells assessed as late apoptotic cells at 50 uM after 24 hrs by Annexin-V-FITC/propidium iodide staining based flow cytometric analysis (reference value: 0.73 +/- 0.14 %). The data set is classed as functional.
The test system of data set [17] is Jurkat E6.1. Kind of data set: Induction of apoptosis in human Jurkat E6-1 cells assessed as early apoptotic cells at 50 uM after 24 hrs by Annexin-V-FITC/propidium iodide staining based flow cytometric analysis (reference value: 0.5 +/- 0.07 %). The format is functional.
The test system of data set [18] is HL-60. Kind of data set: Induction of apoptosis in human HL60 cells assessed as necrotic cells at 50 uM after 24 hrs by Annexin-V-FITC/propidium iodide staining based flow cytometric analysis (reference value: 1.96 +/- 0.33 %). The format is functional.
The test system of data set [19] is HL-60. Kind of data set: Induction of apoptosis in human HL60 cells assessed as late apoptotic cells at 50 uM after 24 hrs by Annexin-V-FITC/propidium iodide staining based flow cytometric analysis (reference value: 0.85 +/- 0.13 %). The data set is classed as functional.
Data set [20] has as its system HL-60. The data set can be described thus: Induction of apoptosis in human HL60 cells assessed as early apoptotic cells at 50 uM after 24 hrs by Annexin-V-FITC/propidium iodide staining based flow cytometric analysis (reference value: 0.36 +/- 0.02 %). The format is functional.

With `COC(=O)/C(=C\c1ccc(OC(=O)c2c(OC)cccc2OC)cc1)Sc1ccnc2cc(Cl)ccc12`, the inhibition in data set [1] is 92.7%. In addition, in data set [2], the Activity is 2.6%. Further, the MSD in data set [3] amounted to 23 days. Besides, the IC50 is greater than 100 µM in data set [4], 37.5 µM in data set [5] and 37.2 µM in [6].

`COC(=O)/C(=C\c1ccc(OC(=O)c2cccc(OC)c2OC)cc1)Sc1ccnc2cc(Cl)ccc12`: the inhibition in [1] amounted to 38.6%. Besides, the concentration for half-maximal inhibition (IC50) amounted to 86.6 µM in [4], 25.8 µM in [5] and 13 µM in data set [6]. Besides, the selectivity ratio came to 3.36 in [7] and 6.66 in data set [8].

For the molecule `COC(=O)/C(=C\c1ccc(OC(=O)c2ccc(OC)cc2)cc1)Sc1ccnc2cc(Cl)ccc12`, in data set [1], the inhibition was 12.2%. For the same molecule, the figures for the IC50 in [4], in [5] and in [6] were 63.5 µM, 11 µM and 9.09 µM, respectively. Further, the selectivity ratio in [7] was 5.77; in [8], 6.99.

With `COC(=O)/C(=C\c1ccc(OC(=O)c2cccc(OC)c2)cc1)Sc1ccnc2cc(Cl)ccc12`, in data set [1], the inhibition stood at 87.1%. Besides, the Activity in [2] came out at 1.5%. Moreover, in data set [3], the MSD came out at 27.16 days. In addition, the concentration for half-maximal inhibition (IC50) in data set [4] was greater than 100 µM; in data set [5] it was 33.2 µM; in [6], 25.5 µM.

For `COC(=O)/C(=C\c1ccc(OC(=O)c2cc(OC)cc(OC)c2OC)cc1)Sc1ccnc2cc(Cl)ccc12`, in data set [1], the inhibition was 47.7%. Moreover, the values for the IC50 in data set [4], in data set [5] and in data set [6] were 74 µM, 15.6 µM and 10.7 µM, respectively. For the same molecule, the selectivity ratio was 4.74 in [7] and 6.91 in data set [8].

In the case of `COC(=O)/C(=C\c1ccc(OC(=O)c2cc(OCc3ccccc3)c(OCc3ccccc3)c(OCc3ccccc3)c2)cc1)Sc1ccnc2cc(Cl)ccc12`, in [1], the inhibition turned out to be 23%. The IC50 in data set [4], in [5] and in data set [6] was greater than 100 µM each time.

`COC(=O)/C(=C\c1ccc(OC(=O)c2ccc(OC)cc2OC)cc1)Sc1ccnc2cc(Cl)ccc12`: the inhibition in data set [1] was 49.2%. Moreover, the 50% inhibitory concentration (IC50) in data set [4] was determined as 41.6 µM; in data set [5], 10.2 µM; in [6], 7.64 µM. In addition, the selectivity ratio in data set [7] came to 4.09; in data set [8] it was 5.45.

Take `COC(=O)/C(=C\c1ccc(OC(=O)c2cc(OC)c(OC)c(OC)c2)cc1)Sc1ccnc2cc(Cl)ccc12`: in [1], the inhibition is 2.48%. The values for the concentration for half-maximal inhibition (IC50) in [4], in data set [5] and in [6] were 35.2 µM, 4.57 µM and 4.24 µM, respectively. Moreover, the selectivity ratio is 7.7 in [7] and 8.3 in data set [8]. The Activity in data set [9] is on record as 35.6%; in [10] it was 10.3%; in [11], 2.41%; in data set [12], 45.8%; in [13], 11.3%; in data set [14], 0.75%.

Take `COC(=O)/C(=C\c1ccc(OC(=O)c2ccccc2)cc1)Sc1ccnc2cc(Cl)ccc12`: in data set [1], the inhibition came out at 33.6%. The results for the IC50 in [4], in [5] and in data set [6] were greater than 100 µM, 35.7 µM and 30.2 µM, respectively.

As to `COC(=O)/C(=C\c1ccc(O)cc1)Sc1ccnc2cc(Cl)ccc12`, the inhibition in data set [1] worked out at 72.4%. Moreover, the Activity in data set [2] was 1.4%; in data set [9], 38.8%; in data set [10], 2.12%; in [11] it was 0.45%; in [12], 45%; in data set [13], 3.15%. For the same molecule, the Activity in [14] is listed as 0.74 - 0.75%. Further, the MSD in data set [3] was found to be 24.8 days. Moreover, the IC50 in data set [4] came to 33.7 µM; in [5] it was 5.18 µM; in data set [6] it was 4.31 µM. Also, the values for the selectivity ratio in [7] and in data set [8] were 6.51 and 7.82, respectively.

For the molecule `COC(=O)/C(=C\c1ccc(OC(=O)c2ccc(OC)c(OC)c2)cc1)Sc1ccnc2cc(Cl)ccc12`, the inhibition in data set [1] came out at 12.7%. Further, the values for the half-inhibitory concentration (IC50) in [4], in [5] and in data set [6] were 51.1 µM, 8.29 µM and 5.29 µM, respectively. The selectivity ratio in data set [7] came to 6.16; in data set [8], 9.66. Also, the Activity in data set [9] is recorded as 21.5%; in [10] it was 13.5%; in data set [11], 0.76%; in data set [12] it was 40.2%; in [13], 2.15%; in [14], 0.33%.

Regarding `COC(=O)/C(=C\c1ccc(OC(=O)c2cc(OC)c(OC)cc2OC)cc1)Sc1ccnc2cc(Cl)ccc12`, the inhibition in [1] is 39.6%. Moreover, the IC50 is 52.5 µM in [4], 9.65 µM in data set [5] and 6.26 µM in data set [6]. Further, the selectivity ratio in data set [7] was 5.44; in data set [8], 8.34. In addition, the Activity is 21.4% in data set [9]; 3.17% in data set [10]; 0.85% in data set [11]; 29.5% in [12]; 4.21% in data set [13]; 0.61% in [14].

For the molecule `O=[As][As+](=O)[O-]` (centres undefined) [ARSENIC TRIOXIDE], the half-inhibitory concentration (IC50) was 15.3 µM in data set [4], 7.32 µM in data set [5] and 4.97 µM in data set [6]. The values for the selectivity ratio in [7] and in data set [8] were 2.09 and 3.07, respectively.

In the case of `COC(=O)/C(=C\c1ccc(OC(=O)c2cc(OC)cc(OC)c2)cc1)Sc1ccnc2cc(Cl)ccc12`, the inhibition in data set [1] turned out to be 85.6%. In addition, the Activity in data set [2] worked out at 1.4%. Further, in data set [3], the MSD worked out at 28.5 days. For the same molecule, the IC50 turned out to be 84.1 µM in data set [4], 28.9 µM in data set [5] and 19 µM in data set [6]. For the same molecule, the selectivity ratio in data set [7] amounted to 2.92; in [8], 4.42.

Regarding `COC(=O)/C(=C\c1ccc(OC(=O)c2ccccc2OC)cc1)Sc1ccnc2cc(Cl)ccc12`, the inhibition in data set [1] came out at 94.6%. In addition, the Activity in data set [2] came out at 1.2%. Moreover, the MSD in [3] worked out at 28.83 days. Moreover, the half-maximal inhibitory concentration (IC50) was greater than 100 µM in [4], 44.6 µM in data set [5] and 44.5 µM in data set [6].

Turning to `O=c1c(O)c(-c2ccc(O)c(O)c2)oc2cc(O)cc(O)c12` [QUERCETIN], the Activity in [15] is listed as 31.9%; in [16], 9.51%; in [17], 0.64%; in data set [18] it was 31%; in data set [19], 3.07%; in [20], 0.46%.
